Results reported in patent US6037333A, “Microbe-inhibiting compositions” (Trustees of Tufts College, priority 1998, dated 2000).
“Also recorded” adds a separate entry of the source.

Tests used:
[1] = biological target: mannose binding protein (MBP) of Acanthamoeba (Acanthamoeba castellanii, UniProt Q6J288); assay: Solid-phase assay of 35S-labeled Acanthamoeba binding to Man-BSA coated wells; parameters: species or system Acanthamoeba strain MEEI 0184 (A. castellani); conditions: for Inhibition of amoebic binding to Man-BSA / affinity of amoebic lectin: no concentration stated
Chain of mannose binding protein (MBP) of Acanthamoeba (Q6J288 entry or part of it): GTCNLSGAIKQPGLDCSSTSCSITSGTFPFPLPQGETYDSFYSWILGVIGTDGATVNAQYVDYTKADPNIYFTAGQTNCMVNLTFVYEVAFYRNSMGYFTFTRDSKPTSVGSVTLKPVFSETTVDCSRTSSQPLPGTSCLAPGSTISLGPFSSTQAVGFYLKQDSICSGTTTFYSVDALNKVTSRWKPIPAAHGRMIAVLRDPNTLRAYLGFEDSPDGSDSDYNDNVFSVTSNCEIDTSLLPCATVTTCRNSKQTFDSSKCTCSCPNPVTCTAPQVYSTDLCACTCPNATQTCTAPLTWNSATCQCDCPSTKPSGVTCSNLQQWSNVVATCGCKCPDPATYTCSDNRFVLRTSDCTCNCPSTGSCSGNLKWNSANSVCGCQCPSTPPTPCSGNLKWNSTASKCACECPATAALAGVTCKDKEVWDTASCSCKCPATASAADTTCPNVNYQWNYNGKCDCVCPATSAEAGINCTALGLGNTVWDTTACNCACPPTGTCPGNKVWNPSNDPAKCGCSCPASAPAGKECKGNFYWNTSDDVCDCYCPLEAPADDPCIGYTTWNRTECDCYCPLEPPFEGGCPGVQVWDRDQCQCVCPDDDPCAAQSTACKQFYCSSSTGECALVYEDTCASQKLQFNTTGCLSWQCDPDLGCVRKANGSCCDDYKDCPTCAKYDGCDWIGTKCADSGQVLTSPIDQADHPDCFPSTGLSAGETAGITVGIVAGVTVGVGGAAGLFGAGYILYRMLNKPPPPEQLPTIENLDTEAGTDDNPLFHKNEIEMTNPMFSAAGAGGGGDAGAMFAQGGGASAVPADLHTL
Description: The Acanthamoeba strain MEEI 0184 (A. castellani based on morphological characteristics) was derived from an infected human cornea and used throughout this study. ATCC strain 30868 should have similar properties. The parasites were axenically cultured in PYG medium. A solid-phase assay characterized the sugar binding properties of the mannose binding protein (MBP) of Acanthamoeba (Z. Yang et al., Infect. Immun. 65:439-445, 1997). Briefly, wells of microtiter plates were coated with bovine serum albumin-α-D-mannopyranosyl phenylisothiocyanate (Man-BSA, 15-25 moles of α-D-mannopyranoside/mole albumin, 0.03 μg/ml, 50μl/well in 0.1 M sodium carbonate buffer, pH 9.6, 4° C. overnight). Nonspecific binding was blocked with 1% BSA in phosphate buffered saline (PBS, 1 hour, room temperature). After adding a 50-μl aliquot of ^35 S-labeled Acanthamoeba (5×10^6 cells/ml in PBS; 1 to 2 cpm/parasite, >95% trophozoites) to each well, the plates were incubated for 2 hours at room temperature. After rinsing the cells with PBS to remove unbound Acanthamoeba, 0.1 ml of 2% sodium dodecyl sulfate (SDS) was added to each well, and the radioactivity in aliquots of solubilized material was determined in a scintillation counter.

[2] = system: Acanthamoeba; assay: 51Cr release assay of amoeba-induced cytolysis of corneal epithelium; assay type: cell-based
Experimental: Chromium release experiments were performed to confirm the absence or occurrence of cytolysis. Visually, cell plaques or bare spots in a culture can indicate either cell loss by cytolysis, or separation of the cell from the culture surface, wherein detached cells, although initially viable, subsequently die. Cell lysis was quantified by measuring ^51 Cr release from prelabeled cells. After incubating confluent monolayer cultures of corneal epithelium in 24-well plates in cell culture medium containing Na^51 CrO4 (460 mCi/mg, 12 μCi/ml) for 18-20 hours, the cells were thoroughly rinsed and incubated with Acanthamoeba (1×10^6 parasites/ml SFB media). The four groups were (i) Acanthamoeba in media alone, (ii) Acanthamoeba in media containing α-Man, (iii) Acanthamoeba in media containing GlcNAc, and (iv) Acanthamoeba condition media. When approximately 50-70% cell loss occurred based on phase contrast microscopy, aliquots of cell-free conditioned medium from each well were analyzed. Supernatants from the four wells in each group were pooled before analysis. Percent specific release was calculated using E/T×100, where E is CPM released in test well minus CPM released in control (parasite-free) well and T is the total CPM (CPM cells+CPM supernatant in control wells). "CPM cells" was determined by incubating control wells with 0.5% Triton X-100. Conditioned media from each well was also analyzed for lactate dehydrogenase (LDH) release using an LDH assay kit (Sigma).

[3] = system: Acanthamoeba; assay: Adhesion of amoebae to corneal epithelial cell monolayer; assay type: cell-based; conditions: saccharide present in media
[4] = system: Acanthamoeba; assay: Acanthamoeba-induced cytopathic effect (CPE) assay, immortalized corneal epithelial cultures; assay type: cell-based; conditions: for Inhibition of amoeba-induced CPE: no concentration stated
Experimental: Corneal epithelial cells with extended life span were also produced.
To characterize the role of carbohydrate-mediated host-parasite interactions in the Acanthamoeba-induced cytotoxicity of host cells, in vitro cytopathic assays were performed using both primary and immortalized cultures of corneal epithelium as host cells. Immortalized cells were assayed as confluent cultures in 24-well plates, and primary cells were assayed as confluent cells in 35-mm dishes or 6-well plates.
The plates were incubated at 37° C. in a CO2 incubator and periodically examined under a phase-contrast microscope for the presence of cell-free plaques in the monolayer for up to 28-30 hours. Control wells contained host cells without the parasites. At the end of the incubation period, the cultures were stained with Giemsa (Diff-Quik, Dade Diagnostic Inc., Aguada, PR). Approximate cell density in each well was estimated by scanning the stained plates in a calibrated, computer-assisted Bio-Image Scanner (Millipore, Ann Arbor, Mich.). Cytopathic effect (CPE) was expressed as percentage of the optical density by the following formula: [formula]
The CPE assays were performed in the SFB media containing one or more saccharides to be tested.
After staining with Giemsa, percent cell loss in each well was calculated based on the optical density in each well.

[5] = system: Acanthamoeba-conditioned medium (ACM); assay: CPE assay with Acanthamoeba-conditioned medium (ACM); assay type: cell-based
Experimental: To determine whether the mechanism modulating the CPE produced by intact amoeba and amoeba-conditioned medium (ACM) are distinct, CPE and assays were also performed using ACM in the presence and the absence of saccharides. To produce ACM, exponentially growing parasites (>95% trophozoites) in PYG media (Proteose Peptone-yeast extract-glucose , J. T. Bornes et al., J. Parasitol. 56:904-906, 1970) were rinsed twice with SFB medium and incubated in serum-free SFB medium at concentrations between 2×10^5 to 1×10^6 cells/ml in a CO2 incubator for 24 hours. After removing the parasites by centrifugation, each supernatant was analyzed for its ability to induce CPE. Saccharides (α-Man and GIcNAc, 50 mM) were added either to the ACM after it was produced or to serum-free medium used to produce an ACM. The ACM produced in the presence of the saccharides was also analyzed after removal of the saccharides by centrifugation through Centricon 3 microconcentrators (Amicon Inc., Beverly, Mass.).
To determine the role of the parasitic secretory factors in the cytopathogenic mechanism, chromium release and CPE assays were performed using ACM. In this study, parasites were incubated in the SFB media for 24 hours, centrifuged to remove parasites and the conditioned medium was tested for its ability to produce cytolysis and CPE. The ACM produced remarkable CPE. […] Approximately 6 to 8 hours following the incubation of the monolayer with the ACM, the cell sheet at the edges of the monolayer began to lift and roll inwards and eventually the entire monolayer lifted en bloc from the dish. These observations were similar to those seen when the monolayers were incubated with trophozoites in the presence of α-Man. Unlike the CPE induced by intact amoeba, the CPE induced by the ACM was not inhibited by either α-Man or GlcNAc when the sugars were added to the ACM after it was produced. In the next set of experiments, ACM was produced in the presence of α-Man or GIcNAc and was tested for CPE-inducing activity. […] In addition, the filtrate and retentate obtained after filtering the ACM in Centricon 3 microconcentrators were tested for CPE-inducing activity. When the ACM was produced in the absence of either sugar, substantially all of the CPE-inducing activity was found in the retentate obtained after Centricon filtration.

[6] = listed as Methyl-α-mannopyranoside

SMILES: CO[C@H]1O[C@H](CO)[C@@H](O)[C@H](O)[C@@H]1O [Methyl-α-D-mannopyranoside]
- Relative inhibitory potency in binding to Man-BSA ([1]; comparator named in the value, listed as α-Man): ten times that of D-mannose; also recorded: eight times that of β-Man
- Inhibition of amoebic binding to Man-BSA / affinity of amoebic lectin [1, 6]: potent inhibitors
- Inhibition of amoebic binding to Man-BSA / affinity of amoebic lectin ([1]; listed as α-Man): highest affinity
- Percentage specific 51Cr release ([2]; Acanthamoeba 1×10^6 parasites/ml in media containing the saccharide, media alone about 100): ~28%
- Inhibition of amoeba-induced cytolysis ([2]; fifty millimolar, 51Cr release): more than 70%
- Adhesion of amoebae to the cell monolayer in presence of saccharide [3]: did not adhere
- inhibition at 310 µM ([4]; Acanthamoeba, in Oryctolagus cuniculus, at 0.31 mM, read-out: Inhibition of cytopathic effect (% inhib. at indicated conc.)): 61%
- Time at which cell layer began to lift from the periphery ([4]; incubation with amoebae in presence of saccharide, without it nearly complete loss after about 20 hours): 20 to 28 h
- Inhibition of amoeba-induced CPE [4, 6]: potent inhibitors
- Inhibition of amoeba-induced CPE ([4]; listed as α-Man): nearly identical
- Amoeba-induced cytolysis of corneal epithelial cells (microscopy, words) ([4]; saccharide present in media): substantially inhibited
- Cell-free plaques in monolayer ([4]; saccharide present in media): not detected
- CPE-inducing activity of ACM produced in SFB containing the saccharide ([5]; saccharide 50 mM in medium used to produce ACM): strongly induced CPE
- Inhibition of ACM-induced CPE ([5]; sugar (50 mM) added to the ACM after it was produced): not inhibited
